Source: ChEMBL document CHEMBL3608201, “Synthesis and biological evaluation of levofloxacin core-based derivatives with potent antibacterial activity against resistant Gram-positive pathogens” (Bioorg Med Chem Lett, 2015)

Tests used:
Streptococcus pneumoniae [1] = test: Antimicrobial activity against penicillin-resistant Streptococcus pneumoniae clinical isolates by standard broth microdilution method; type: functional
Streptococcus pneumoniae [2] = test: Potency index, ratio of MIC for levofloxacin to MIC for test compound against penicillin-resistant Streptococcus pneumoniae clinical isolates by standard broth microdilution method; type: functional
Streptococcus pneumoniae [3] = test: Antimicrobial activity against Streptococcus pneumoniae ATCC 49619 by standard broth microdilution method; type: functional
[4] = Plasma clearance in beagle dog at 18.8 mg/kg, iv administered as single dose; type: ADME, organism-based, Canis lupus familiaris
[5] = Cmax in beagle dog at 18.8 mg/kg, iv administered as single dose; type: ADME, organism-based, Canis lupus familiaris; parameters: dose 18.8 mg/kg, route intravenous; details: in vivo
Staphylococcus aureus [6] = test: Potency index, ratio of MIC for moxifloxacin to MIC for test compound against methicillin-resistant Staphylococcus aureus clinical isolates by standard broth microdilution method; type: functional
[7] = Volume of distribution in beagle dog at 18.8 mg/kg, iv administered as single dose; type: ADME, organism-based, Canis lupus familiaris; details: in vivo
Staphylococcus aureus [8] = test: Antimicrobial activity against methicillin-resistant Staphylococcus aureus clinical isolates by standard broth microdilution method; type: functional
[9] = Toxicity in ICR mouse administered as single intravenous dose; type: organism-based; details: in vivo
Pseudomonas aeruginosa = test: Antimicrobial activity against Pseudomonas aeruginosa ATCC 27853 by standard broth microdilution method; type: functional
Streptococcus pyogenes [10] = test: Potency index, ratio of MIC for levofloxacin to MIC for test compound against Streptococcus pyogenes ATCC 19615 by standard broth microdilution method; type: functional
[11] = Tmax in beagle dog at 18.8 mg/kg, iv administered as single dose; type: ADME, organism-based, Canis lupus familiaris; details: in vivo
[12] = system: Staphylococcus epidermidis; test: Antimicrobial activity against methicillin-resistant Staphylococcus epidermidis clinical isolates by standard broth microdilution method; type: functional
[13] = AUC (0 to infinity) in beagle dog at 18.8 mg/kg, iv administered as single dose; type: ADME, organism-based, Canis lupus familiaris; parameters: dose 18.8 mg/kg, time infinity, route intravenous; details: in vivo
Staphylococcus aureus [14] = test: Antimicrobial activity against levofloxacin-resistant Staphylococcus aureus clinical isolates by standard broth microdilution method; type: functional
Streptococcus pyogenes [15] = test: Potency index, ratio of MIC for ciprofloxacin to MIC for test compound against Streptococcus pyogenes ATCC 19615 by standard broth microdilution method; type: functional
Streptococcus pneumoniae [16] = test: Potency index, ratio of MIC for penicillin to MIC for test compound against penicillin-resistant Streptococcus pneumoniae clinical isolates by standard broth microdilution method; type: functional
Streptococcus pneumoniae [17] = test: Potency index, ratio of MIC for ciprofloxacin to MIC for test compound against penicillin-resistant Streptococcus pneumoniae clinical isolates by standard broth microdilution method; type: functional
Escherichia coli [18] = test: Antimicrobial activity against Escherichia coli ATCC 25922 by standard broth microdilution method; type: functional
[19] = Elimination half life in beagle dog at 18.8 mg/kg, iv administered as single dose; type: ADME, organism-based, Canis lupus familiaris; details: in vivo, read-out: beta t1/2 (converted)
Escherichia coli [20] = test: Antimicrobial activity against ciprofloxacin-resistant Escherichia coli clinical isolates by standard broth microdilution method; type: functional
Streptococcus pyogenes [21] = test: Antimicrobial activity against Streptococcus pyogenes ATCC 19615 by standard broth microdilution method; type: functional
Staphylococcus aureus [22] = test: Antimicrobial activity against Staphylococcus aureus ATCC 25923 by standard broth microdilution method; type: functional
[23] = Aqueous solubility of the compound in water; type: physicochemical
[24] = system: Staphylococcus epidermidis; test: Antimicrobial activity against Staphylococcus epidermidis ATCC 12228 by standard broth microdilution method; type: functional
Streptococcus pyogenes [25] = test: Potency index, ratio of MIC for penicillin to MIC for test compound against Streptococcus pyogenes ATCC 19615 by standard broth microdilution method; type: functional

SMILES: C[C@H]1COc2c(N3CCC(O)CC3)c(F)cc3c(=O)c(C(=O)O)cn1c23.N=C(N)NCCC[C@H](N)C(=O)O.O
- MIC (Streptococcus pneumoniae [1]): ≤ 0.016 mg/L
- Ratio (Streptococcus pneumoniae [2]): 32
- MIC (Streptococcus pneumoniae [3]): 0.125 mg/L
- clearance [4]: 0.696 L/h/kg
- Cmax [5]: 15.7 µg/mL
- Ratio (Staphylococcus aureus [6]): 4
- Vd [7]: 3.27 L/kg
- MIC (Staphylococcus aureus [8]): 1 mg/L
- LD50 [9]: 1400 mg/kg
- MIC (Pseudomonas aeruginosa): 2 mg/L
- Ratio (Streptococcus pyogenes [10]): 32
- Tmax [11]: 4.8 min
- MIC [12]: 1 mg/L
- AUC(0-inf) [13]: 27 µg·h/mL
- MIC (Staphylococcus aureus [14]): 0.25 mg/L
- Ratio (Streptococcus pyogenes [15]): 32
- Ratio (Streptococcus pneumoniae [16]): 64
- Ratio (Streptococcus pneumoniae [17]): 32
- MIC (Escherichia coli [18]): 0.125 mg/L
- half-life [19]: 3.25 h
- MIC (Escherichia coli [20]): 0.25 mg/L
- MIC (Streptococcus pyogenes [21]): ≤ 0.016 mg/L
- MIC (Staphylococcus aureus [22]): 0.031 mg/L
- solubility [23]: 5.33 mg/mL
- MIC [24]: 0.031 mg/L
- Ratio (Streptococcus pyogenes [25]): 64
